{
  "source": "PubChem BioAssay AID1259407",
  "about": "(Chemical Carcinogenesis Research Information System (CCRIS), 2018)",
  "test_system": "CCRIS mutagenicity, Ames/micronucleus/aberration tests",
  "experiment": "CCRIS mutagenicity studies",
  "key": {"[1]": {"conditions": "Test System: AMES SALMONELLA TYPHIMURIUM, Strain/Indicator: TA100, Metabolic Activation: NONE, Method: STANDARD PLATE"}},
  "note": "Activity calls are given as the source filed them. No rule for the calls is given here.",
  "data": [
    {"smiles": "C1N2CN3CN1CN(C2)C3", "values": [
      {"measurement": "mutagenic call", "setting": "End Point: In vitro chromosomal aberrations, Test System: Chinese hamster lung (CHL/IU) cells, Metabolic Activation: Rat, Liver, S9, Phenobarbital and 5,6-benzoflavone", "result": "inactive; negative"},
      {"measurement": "mutagenic call", "setting": "Test System: AMES SALMONELLA TYPHIMURIUM, Strain/Indicator: TA97, Metabolic Activation: HAMSTER, LIVER, S-9, AROCLOR 1254 (5 OR 30%), Method: PREINCUBATION", "result": "inactive; negative"},
      {"measurement": "mutagenic call", "setting": "Test System: AMES SALMONELLA TYPHIMURIUM, Strain/Indicator: TA97, Metabolic Activation: HAMSTER, LIVER, S-9, AROCLOR 1254 (10%), Method: PREINCUBATION", "result": "inactive; negative"},
      {"measurement": "mutagenic call", "setting": "Test System: AMES SALMONELLA TYPHIMURIUM, Strain/Indicator: TA97, Metabolic Activation: NONE, Method: PREINCUBATION", "result": "inactive; negative"},
      {"measurement": "mutagenic call", "setting": "Test System: AMES SALMONELLA TYPHIMURIUM, Strain/Indicator: TA97, Metabolic Activation: RAT, LIVER, S-9, AROCLOR 1254 (10%), Method: PREINCUBATION", "result": "inactive; negative"},
      {"measurement": "mutagenic call", "setting": "Test System: AMES SALMONELLA TYPHIMURIUM, Strain/Indicator: TA97, Metabolic Activation: RAT, LIVER, S-9, AROCLOR 1254 (30%), Method: PREINCUBATION", "result": "inactive; negative"},
      {"measurement": "mutagenic call", "setting": "Test System: AMES SALMONELLA TYPHIMURIUM, Strain/Indicator: TA98, Metabolic Activation: HAMSTER, LIVER, S-9, AROCLOR 1254 (10 OR 30%), Method: PREINCUBATION", "result": "inactive; negative"},
      {"measurement": "mutagenic call", "setting": "Test System: AMES SALMONELLA TYPHIMURIUM, Strain/Indicator: TA98, Metabolic Activation: RAT, LIVER, S-9, AROCLOR 1254 (10 OR 30%), Method: PREINCUBATION", "result": "inactive; negative"},
      {"measurement": "mutagenic call", "setting": "Test System: AMES SALMONELLA TYPHIMURIUM, Strain/Indicator: TA98, Metabolic Activation: RAT, LIVER, S-9, KC 500, Method: PREINCUBATION", "result": "active; positive"},
      {"measurement": "mutagenic call", "setting": "Test System: AMES SALMONELLA TYPHIMURIUM, Strain/Indicator: TA98, Metabolic Activation: RAT, LIVER, S-9, PCB, Method: PREINCUBATION", "result": "inactive; negative"},
      {"measurement": "mutagenic call", "setting": "Test System: AMES SALMONELLA TYPHIMURIUM, Strain/Indicator: TA100, Metabolic Activation: HAMSTER, LIVER, S-9, AROCLOR 1254 (10 OR 30%), Method: PREINCUBATION", "result": "inactive; negative"},
      {"measurement": "mutagenic call", "setting": "Test System: AMES SALMONELLA TYPHIMURIUM, Strain/Indicator: TA100, Metabolic Activation: NONE, Method: PREINCUBATION", "result": "inactive; negative"},
      {"measurement": "mutagenic call", "setting": "Test System: AMES SALMONELLA TYPHIMURIUM, Strain/Indicator: TA100, Metabolic Activation: RAT, LIVER, S-9, AROCLOR 1254 (10 OR 30%), Method: PREINCUBATION", "result": "inactive; negative"},
      {"measurement": "mutagenic call", "setting": "Test System: AMES SALMONELLA TYPHIMURIUM, Strain/Indicator: TA100, Metabolic Activation: RAT, LIVER, S-9, KC 500, Method: PREINCUBATION", "result": "active; positive"},
      {"measurement": "mutagenic call", "setting": "Test System: AMES SALMONELLA TYPHIMURIUM, Strain/Indicator: TA100, Metabolic Activation: RAT, LIVER, S-9, PCB, Method: PREINCUBATION", "result": "inactive; negative"},
      {"measurement": "mutagenic call", "setting": "Test System: AMES SALMONELLA TYPHIMURIUM, Strain/Indicator: TA1535, Metabolic Activation: HAMSTER, LIVER, S-9, AROCLOR 1254 (10 OR 30%), Method: PREINCUBATION", "result": "inactive; negative"},
      {"measurement": "mutagenic call", "setting": "Test System: AMES SALMONELLA TYPHIMURIUM, Strain/Indicator: TA1535, Metabolic Activation: NONE, Method: PREINCUBATION", "result": "inactive; negative"},
      {"measurement": "mutagenic call", "setting": "Test System: AMES SALMONELLA TYPHIMURIUM, Strain/Indicator: TA1535, Metabolic Activation: RAT, LIVER, S-9, AROCLOR 1254 (10 OR 30%), Method: PREINCUBATION", "result": "inactive; negative"},
      {"measurement": "mutagenic call", "setting": "Test System: AMES SALMONELLA TYPHIMURIUM, Strain/Indicator: TA1535, Metabolic Activation: RAT, LIVER, S-9, KC 500, Method: PREINCUBATION", "result": "inactive; negative"},
      {"measurement": "mutagenic call", "setting": "Test System: AMES SALMONELLA TYPHIMURIUM, Strain/Indicator: TA1537, Metabolic Activation: HAMSTER, LIVER, S-9, AROCLOR 1254 (10%), Method: PREINCUBATION", "result": "inactive; negative"},
      {"measurement": "mutagenic call", "setting": "Test System: AMES SALMONELLA TYPHIMURIUM, Strain/Indicator: TA1537, Metabolic Activation: NONE, Method: PREINCUBATION", "result": "inactive; negative"},
      {"measurement": "mutagenic call", "setting": "Test System: AMES SALMONELLA TYPHIMURIUM, Strain/Indicator: TA1537, Metabolic Activation: RAT, LIVER, S-9, AROCLOR 1254 (10%), Method: PREINCUBATION", "result": "inactive; negative"},
      {"measurement": "mutagenic call", "setting": "Test System: AMES SALMONELLA TYPHIMURIUM, Strain/Indicator: TA1537, Metabolic Activation: RAT, LIVER, S-9, KC 500, Method: PREINCUBATION", "result": "inactive; negative"},
      {"measurement": "mutagenic call", "setting": "Test System: AMES SALMONELLA TYPHIMURIUM, Strain/Indicator: TA1538, Metabolic Activation: HAMSTER, LIVER, S-9, AROCLOR 1254 (10 OR 30%), Method: PREINCUBATION", "result": "inactive; negative"},
      {"measurement": "mutagenic call", "setting": "Test System: AMES SALMONELLA TYPHIMURIUM, Strain/Indicator: TA1538, Metabolic Activation: NONE, Method: PREINCUBATION", "result": "inactive; negative"},
      {"measurement": "mutagenic call", "setting": "Test System: AMES SALMONELLA TYPHIMURIUM, Strain/Indicator: TA1538, Metabolic Activation: RAT, LIVER, S-9, AROCLOR 1254 (10 OR 30%), Method: PREINCUBATION", "result": "inactive; negative"},
      {"measurement": "mutagenic call", "setting": "Test System: AMES SALMONELLA TYPHIMURIUM, Strain/Indicator: TA1538, Metabolic Activation: RAT, LIVER, S-9, KC 500, Method: PREINCUBATION", "result": "inactive; negative"},
      {"measurement": "mutagenic call", "setting": "Test System: Ames Salmonella typhimurium, Strain/Indicator: TA98, Metabolic Activation: None, Method: Preincubation", "result": "inactive; negative"},
      {"measurement": "mutagenic call", "setting": "Test System: Ames Salmonella typhimurium, Strain/Indicator: TA98, Metabolic Activation: Rat, Liver, S9, Sodium phenobarbital and 5,6-benzoflavone (10%), Method: Preincubation", "result": "inactive; negative"},
      {"measurement": "mutagenic call", "setting": "Test System: Ames Salmonella typhimurium, Strain/Indicator: TA100, Metabolic Activation: None, Method: Preincubation", "result": "inactive; negative"},
      {"measurement": "mutagenic call", "setting": "Test System: Ames Salmonella typhimurium, Strain/Indicator: TA100, Metabolic Activation: Rat, Liver, S9, Sodium phenobarbital and 5,6-benzoflavone (10%), Method: Preincubation", "result": "inactive; negative"},
      {"measurement": "mutagenic call", "setting": "Test System: Ames Salmonella typhimurium, Strain/Indicator: TA1535, Metabolic Activation: None, Method: Preincubation", "result": "inactive; negative"},
      {"measurement": "mutagenic call", "setting": "Test System: Ames Salmonella typhimurium, Strain/Indicator: TA1535, Metabolic Activation: Rat, Liver, S9, Sodium phenobarbital and 5,6-benzoflavone (10%), Method: Preincubation", "result": "inactive; negative"},
      {"measurement": "mutagenic call", "setting": "Test System: Ames Salmonella typhimurium, Strain/Indicator: TA1537, Metabolic Activation: None, Method: Preincubation", "result": "inactive; negative"},
      {"measurement": "mutagenic call", "setting": "Test System: Ames Salmonella typhimurium, Strain/Indicator: TA1537, Metabolic Activation: Rat, Liver, S9, Sodium phenobarbital and 5,6-benzoflavone (10%), Method: Preincubation", "result": "inactive; negative"},
      {"measurement": "mutagenic call", "setting": "Test System: E. COLI, Strain/Indicator: WP2 UVRA, Metabolic Activation: NONE, Method: PREINCUBATION", "result": "inactive; negative"},
      {"measurement": "mutagenic call", "setting": "Test System: E. COLI, Strain/Indicator: WP2 UVRA, Metabolic Activation: RAT, LIVER, S-9, KC 500, Method: PREINCUBATION", "result": "inactive; negative"},
      {"measurement": "mutagenic call", "setting": "Test System: E. coli, Strain/Indicator: WP2uvrA/pKM101, Metabolic Activation: None, Method: Preincubation", "result": "inactive; negative"},
      {"measurement": "mutagenic call", "setting": "Test System: E. coli, Strain/Indicator: WP2uvrA/pKM101, Metabolic Activation: Rat, Liver, S9, Sodium phenobarbital and 5,6-benzoflavone (10%), Method: Preincubation", "result": "inactive; negative"}
    ]},
    {"smiles": "OCc1ccc(F)cc1", "values": [
      {"measurement": "mutagenic call", "setting": "[1]", "result": "inactive; negative"}
    ]},
    {"smiles": "CC(C)C(=O)Nc1snc2ccccc12", "values": [
      {"measurement": "mutagenic call", "setting": "[1]", "result": "inactive; negative"},
      {"measurement": "mutagenic call", "setting": "Test System: AMES SALMONELLA TYPHIMURIUM, Strain/Indicator: TA100, Metabolic Activation: S-9, Method: STANDARD PLATE", "result": "inactive; negative"},
      {"measurement": "mutagenic call", "setting": "Test System: AMES SALMONELLA TYPHIMURIUM, Strain/Indicator: TA1537, Metabolic Activation: NONE, Method: STANDARD PLATE", "result": "inactive; negative"},
      {"measurement": "mutagenic call", "setting": "Test System: AMES SALMONELLA TYPHIMURIUM, Strain/Indicator: TA1537, Metabolic Activation: S-9, Method: STANDARD PLATE", "result": "inactive; negative"}
    ]}
  ]
}
